Source: patent publication US20260258500A1, “BIOMARKER FOR METASTATIC BLADDER CANCER” (DONG-A UNIVERSITY RESEARCH FOUNDATION FOR INDUSTRY-ACADEMY …, priority 2022, published 2026)

Experiments:
Assay type in all cases: cell-based, human
[1] = system: GRCB cell lines (gemcitabine-resistant 5637); test: MTT cell viability / IC50 for gemcitabine, GRCB cell lines
Experimental: (§1) To analyze stepwise molecular mechanisms occurring during a process of anticancer drug resistance in bladder cancer patients, bladder cancer cell lines having resistance to gemcitabine (GEM) as a representative anticancer drug for bladder cancer were constructed. Specifically, five candidate groups A to E of the 5637 cell line were treated with 5 μM GEM (Eli Lilly and company, IN, USA) and cultured for 3 days. Thereafter, the residual cells were washed with phosphate-buffered saline (PBS) and replaced with a new medium. The process was repeated until the cells recovered to 90% confluency, and after each stage was completed, several cell stocks in the same state were stored in liquid nitrogen. Thereafter, the recovered cells were inoculated in a plate and additionally treated with GEM. A total of 15-phase GEM-resistant bladder cancer cell lines were constructed using the method, which were named GRCA, GRCB, GRCC, GRCD, and GRCE according to each group.
(§2) For cell proliferation analysis, 1×10^3 cells were seeded in a 96-well plate and cultured for 24 hours. Thereafter, the cells were treated with 1 μM GEM for 0, 24, 48, and 72 hours, and cell viability was measured at each time point. The cells were then treated with thiazolyl blue tetrazolium bromide (MTT) (Sigma-Aldrich, St. Louis, MO, USA) and reacted for 1 hour. After the reaction was completed, the medium containing MTT was fully removed, and MTT formazan was dissolved using dimethyl sulfoxide (DMSO, Duchefa Biochemie, BH Haarlem, Netherlands). Thereafter, the absorbance was measured at 540 nm using a spectrophotometer microplate reader (Victor 3).

[2] = system: 5637 parental cell line (P0); test: MTT cell viability after gemcitabine treatment, parental cell line; details: C of FIG. 1
Experimental: as §2

[3] = system: GRCA cell lines (gemcitabine-resistant 5637); test: MTT cell viability / IC50 for gemcitabine, GRCA cell lines
Experimental: as §1, §2

[4] = P15 cell line, compared to other candidate groups, C of FIG. 1

Nc1ccn([C@@H]2O[C@H](CO)[C@@H](O)C2(F)F)c(=O)n1 [GEM, gemcitabine]
IC50 values for GEM ([1]; P0, P3, P7, P15 cell lines, B of FIG. 2): increased in a phase-dependent manner
Resistance to GEM (cell viability) [1, 4]: significantly highly resistant
Resistance to GEM across stages ([1]; stages P0, P2, P3, P5, P7, P10, P15, E of FIG. 1): increased in a phase-dependent manner
Resistance to GEM (cell viability) [2]: sensitive
IC50 values for GEM ([3]; P0, P3, P7, P15 cell lines, A of FIG. 2): increased in a phase-dependent manner
Resistance to GEM (cell viability) [3, 4]: significantly highly resistant
Resistance to GEM across stages ([3]; stages P0, P2, P3, P5, P7, P10, P15, D of FIG. 1): increased in a phase-dependent manner
